One test relates to HUV-EC-C cells. In words: In Vitro Angiogenesis Assay (tube formation). The note with it: HUV-EC-C cells on ECMatrix, 4 hr; FIGS. 1 and 2.
Test [1] deals with human mammary epithelial primary cells (HMEC). In words: Cell growth inhibition, Sulforhodamine B assay (SRB). The note with it: 120 h, read-out: Cell Line GI50 Range HMEC. A general note: Sulforhodamine B stains cellular protein and so reports cell mass.
Test [2] has as its system HCT-15 colon cancer cell line. Description: Cell growth inhibition, SRB assay, extended panel. The test is classed as cell-based. As to conditions: Homo sapiens, HCT-15, 120 h, read-out: GI50 Range. As for the experimental part:
(§1) The cells were cultured for 5 days before the Sulforhodamine B assay (SRB) was performed to determine the compound's cell growth inhibition activity.
(§2) Sulforhodamine B (purchased from Sigma, Oakville, ON, Canada) is a water-soluble dye that binds to the basic amino acids of the cellular proteins. Thus, colorimetric measurement of the bound dye provides an estimate of the total protein mass that is related to the cell number. the cells are fixed in situ by gently aspirating off the culture media and adding 50 μl ice cold 10% Trichloroacetic Acid (TCA) per well and incubate at 4° C. for 30-60 min, The plates are washed with water five times and allowed to air dry for 5 min. […] Following staining, plates are washed four times with 1% acetic acid to remove unbound dye and then allowed to air dry for 5 min. […] Absorbance is read at 570 nm.
(§3) The percentage (%) of relative growth inhibition was calculated by comparing to DMSO treated only cells (100%). GI50's were determined for compounds with cytotoxic activity. The GI50 was calculated using GraphPad PRISM software (GraphPad Software, Inc., San Diego, Calif., USA).
(§4) The sulforhodamine B assay (SRB) described above was use to assay test compounds against the extended panel (Table 6).

For test [3], the system named is 184A1 immortalized breast cell line. Description: Cell growth inhibition, SRB assay, extended panel. The test is classed as cell-based. The note with it: 184A1, 120 h, read-out: GI50 Range. How it is done: as §1, §2, §3, §4
For test [4], the system named is SK-OV-3 ovarian cancer cell line. Description: Cell growth inhibition, SRB assay, extended panel. It counts as cell-based. The note with it: Homo sapiens, SK-OV-3, 120 h, read-out: GI50 Range. As for the experimental part:
as §1, §2, §3, §4

Test [5] concerns HCT116+/+ colon cancer cell line. Description: Cell growth inhibition, SRB assay, extended panel. It counts as cell-based. The note with it: Homo sapiens, HCT-116, 120 h, read-out: GI50 Range. How it is done:
as §1, §2, §3, §4

Test [6] has as its system SKBR3 breast cancer cell line. In words: Cell growth inhibition, SRB assay, extended panel. It counts as cell-based. The note with it: Homo sapiens, SK-BR-3, 120 h, read-out: GI50 Range. As for the experimental part: as §1, §2, §3, §4
In test [7] the test system is SW 626 ovarian cancer cell line. In words: Cell growth inhibition, SRB assay, extended panel. The test is classed as cell-based. As to conditions: Homo sapiens, SW626, 120 h, read-out: GI50 Range. As for the experimental part:
as §1, §2, §3, §4

For test [8], the system named is HCT116+/− colon cancer cell line. In words: Cell growth inhibition, SRB assay, extended panel. It counts as cell-based. As to conditions: Homo sapiens, HCT-116, 120 h, read-out: GI50 Range. As for the experimental part:
as §1, §2, §3, §4

The test system of test [9] is BT474 breast cancer cell line. Description: Cell growth inhibition, SRB assay, extended panel. As to conditions: Homo sapiens, BT-474, 120 h, read-out: GI50 Range. The test is classed as cell-based. How it is done:
as §1, §2, §3, §4

For test [10], the system named is PC-3 prostate cancer cell line. Description: Cell growth inhibition, SRB assay, extended panel. The test is classed as cell-based. As to conditions: 120 h, read-out: GI50 Range. As for the experimental part:
as §1, §2, §3, §4

In test [11] the test system is SW620 colon cancer cell line. In words: Cell growth inhibition, Sulforhodamine B assay (SRB). The test is classed as cell-based. As to conditions: Homo sapiens, SW-620, 120 h, read-out: Cell Line GI50 Range SW-620, SW620 colon cancer cell line; 5 days culture; SRB. The method, boiled down: (§5)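 Cells were exposed to compound for 5 days, then fixed in situ with cold 10% TCA and stained with sulforhodamine B, with absorbance read at 570 nm.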

In test [12] the test system is HCC1954 basal breast cancer cell line. The test is described as above. It counts as cell-based. As to conditions: Homo sapiens, HCC1954, 120 h, read-out: Cell Line GI50 Range HCC-1954. In a few lines: as §5

The GI50 is the concentration at which growth is held to half of that of the control.

On to `CN(C)Cc1ccc(/C=C/c2n[nH]c3cc([C@@H]4C[C@@]45C(=O)Nc4ccccc45)ccc23)cc1` (racemic) [Example A23, (1R*,2S*)-(E)-2-(3-(4-((dimethylamino)methyl)styryl)-1H-indazol-6-yl)spiro[cyclopropane-1,3′-indolin]-2′-one 2,2,2-trifluoroacetate], for which the “anti-angiogenic effect (tube formation, % of control tube count)” value in the test on HUV-EC-C cells is “anti-agiogenic effects at submicromolar concentrations”. Also, the GI50 in [1] was more than 10 µM; in test [2], 1 to 50 µM; in test [3], 1 to 50 µM; in [4] it was 1 to 50 µM; in test [5] it was 1 to 50 µM; in [6] it was 1 to 50 µM. In addition, the GI50 was 1 to 50 µM in [7]; 1 to 50 µM in test [8]; 1 to 50 µM in [9]; 1 to 50 µM in test [10]; less than 0.1 µM in [11]; 1 to 10 µM in test [12].

The values are drawn from patent US8481525B2, “Kinase inhibitors and method of treating cancer with same” (University of Health Network, priority 2009, dated 2013).
